Laboratory results: ChEMBL document CHEMBL1128117, “Dibenzobicyclo[2.2.2.]octane angiotensin II receptor antagonists” (Bioorg Med Chem Lett, 1995)

Assays:
Angiotensin II receptor [1] = biological target: T1, Angiotensin II receptor (Homo sapiens, UniProt P30556+P50052); test: Inhibitory activity against Angiotensin II receptor; format: protein assay
T1 sequence (P30556 whole entry): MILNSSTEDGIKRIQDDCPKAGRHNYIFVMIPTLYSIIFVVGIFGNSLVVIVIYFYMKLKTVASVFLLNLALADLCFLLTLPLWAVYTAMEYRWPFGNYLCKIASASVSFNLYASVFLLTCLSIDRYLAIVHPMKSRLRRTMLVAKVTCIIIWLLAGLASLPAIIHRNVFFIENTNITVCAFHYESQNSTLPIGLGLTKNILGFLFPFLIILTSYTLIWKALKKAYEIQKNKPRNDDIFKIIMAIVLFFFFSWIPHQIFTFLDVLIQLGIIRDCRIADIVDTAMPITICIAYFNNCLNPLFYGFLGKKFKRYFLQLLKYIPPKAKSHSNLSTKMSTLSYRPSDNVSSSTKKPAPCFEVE
T1 sequence (P50052 whole entry): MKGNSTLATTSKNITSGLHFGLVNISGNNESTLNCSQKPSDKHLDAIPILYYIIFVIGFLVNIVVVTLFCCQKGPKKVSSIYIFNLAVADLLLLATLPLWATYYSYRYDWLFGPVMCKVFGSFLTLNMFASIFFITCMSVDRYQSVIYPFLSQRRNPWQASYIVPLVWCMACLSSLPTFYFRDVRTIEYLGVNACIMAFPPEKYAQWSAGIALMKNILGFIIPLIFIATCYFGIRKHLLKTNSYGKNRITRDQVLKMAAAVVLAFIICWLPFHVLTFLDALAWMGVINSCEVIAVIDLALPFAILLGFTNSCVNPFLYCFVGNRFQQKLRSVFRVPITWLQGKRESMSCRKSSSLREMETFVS

Rattus norvegicus [2] = test: Dose required to lower the blood pressure by 30 mm Hg on intravenous administration in the renal hypertensive rat was determined; format: functional
Rattus norvegicus [3] = test: Dose required to lower the blood pressure by 30 mm Hg on intravenous administration in the renal hypertensive rat; orally inactive; format: functional
Angiotensin II receptor [4] = biological target: T1, Angiotensin II receptor; test: Inhibitory activity against Angiotensin II receptor was determined; format: protein assay

| SMILES | IC50 (Angiotensin II receptor [1]) [nM] | also measured |
| --- | --- | --- |
| CCCCc1nc(Cl)c(C=O)n1Cc1ccc2c(c1)C1c3ccccc3C2C(C(=O)O)C1C(=O)O (single isomer, unassigned) | 320 |  |
| CCCCc1nc(Cl)c(C=O)n1Cc1ccc2c(c1)C1c3ccccc3C2C(C(=O)O)C1C(=O)O (stereo in doubt; 5) | 220 |  |
| CCCCc1nc(Cl)c(C=O)n1Cc1ccc2c(c1)C(O)(C(=O)O)c1ccccc1-2 (stereo not drawn) | > 10000 |  |
| CCCCc1nc(Cl)c(CO)n1Cc1ccc(-c2ccccc2-c2nnn[nH]2)cc1 [LOSARTAN] |  | ED30 (Rattus norvegicus [2]): 0.8 mg/kg |
| CCCCc1nc(Cl)c(C=O)n1Cc1ccc2c(c1)C(C(=O)O)c1ccccc1-2 (stereo not drawn) | 3600 |  |
| CCCCc1nc(Cl)c(C=O)n1Cc1ccc2c(c1)C1c3ccccc3C2C(C(=O)O)C1C(=O)O (stereo in doubt) | 1100 |  |
| CCCCc1nc(Cl)c(C=O)n1Cc1ccc2c(c1)C1c3ccccc3C2C(C(=O)O)C1C(=O)O (stereo in doubt; 3) | 1100 |  |
| CCCCc1nc(Cl)c(C=O)n1Cc1ccc2c(c1)C(Cc1nn[nH]n1)c1ccccc1-2 (stereo not drawn) | 5000 |  |
| CCCCc1nc(Sc2ccccc2)c(C=O)n1Cc1ccc2c(c1)C1c3ccccc3C2C(c2nn[nH]n2)C1c1nn[nH]n1 (stereo not drawn) | 460 | ED30 (Rattus norvegicus [3]): 0.2 mg/kg |
| CCCCc1nc(Cl)c(COC)n1Cc1ccc(N2C(=O)C3(C)CC(C)(C(=O)O)CC(C)(C3)C2=O)cc1 (stereo not drawn) |  | IC50 (Angiotensin II receptor [4]): > 10000 nM |
| CCCCc1nc(Cl)c(C=O)n1Cc1ccc2c(c1)C1c3ccccc3C2C(c2nn[nH]n2)C1c1nn[nH]n1 (stereo not drawn) | 90 | ED30 (Rattus norvegicus [3]): 0.115 mg/kg |
